Reference: US4740601A, “Imidazole derivatives having antimicrobial activities” (SS Pharmaceutical Co., Ltd., priority 1985, dated 1988)
Converted amounts (≈) assume the structure as drawn.

system: Staphylococcus epidermidis ATCC 12228; test: antimicrobial activity, MIC; assay type: cell-based; conditions: Staphylococcus epidermidis, ATCC12228, Staphylococcus epidermidis ATCC 12228; read-out: MIC

SMILES | MIC
CCCCCCOc1ccccc1C(=CCl)n1ccnc1 (single isomer, unassigned) [Compound 83] | 6.25 µg/mL (≈ 20.5 µM)
CCOc1ccccc1C(=CSCc1ccccc1)n1ccnc1 [Compound 7] | 25 µg/mL (≈ 74.3 µM)

system: Trichophyton mentagrophytes IFO 5812; test: antimicrobial activity, MIC; assay type: cell-based; conditions: Trichophyton mentagrophytes, IFO5812, Trichophyton mentagrophytes IFO 5812; read-out: MIC

SMILES | MIC
CCCCCCOc1ccccc1C(=CCl)n1ccnc1 (single isomer, unassigned) [Compound 83] | < 0.2 µg/mL
CCOc1ccccc1C(=CSCc1ccccc1)n1ccnc1 [Compound 7] | 0.78 µg/mL (≈ 2.32 µM)

system: Cladosporium fulvum IAM 5006; test: antimicrobial activity, MIC; assay type: cell-based; conditions: Fulvia fulva, IAM5006, Cladosporium fulvum IAM 5006; read-out: MIC

SMILES | MIC
CCCCCCOc1ccccc1C(=CCl)n1ccnc1 (single isomer, unassigned) [Compound 83] | 12.5 µg/mL (≈ 41 µM)
CCOc1ccccc1C(=CSCc1ccccc1)n1ccnc1 [Compound 7] | 100 µg/mL (≈ 297 µM)

system: Candida albicans NHL 4019; test: antimicrobial activity, MIC; assay type: cell-based; conditions: Candida albicans, NHL4019, Candida albicans NHL 4019; read-out: MIC

SMILES | MIC
CCCCCCOc1ccccc1C(=CCl)n1ccnc1 (single isomer, unassigned) [Compound 83] | 50 µg/mL (≈ 164 µM)
CCOc1ccccc1C(=CSCc1ccccc1)n1ccnc1 [Compound 7] | 100 µg/mL (≈ 297 µM)

system: Pyricularia oryzae IAM 5016; test: microbe, parasite or virus in culture; assay type: cell-based; conditions: Pyricularia oryzae, IAM5016, Pyricularia oryzae IAM 5016

SMILES | MIC
CCCCCCOc1ccccc1C(=CCl)n1ccnc1 (single isomer, unassigned) [Compound 83] | < 0.2 µg/mL
CCOc1ccccc1C(=CSCc1ccccc1)n1ccnc1 [Compound 7] | < 0.2 µg/mL

system: Staphylococcus aureus Terajima; test: antimicrobial activity, MIC; assay type: cell-based; conditions: Staphylococcus aureus, read-out: MIC

SMILES | MIC
CCCCCCOc1ccccc1C(=CCl)n1ccnc1 (single isomer, unassigned) [Compound 83] | 6.25 µg/mL (≈ 20.5 µM)
CCOc1ccccc1C(=CSCc1ccccc1)n1ccnc1 [Compound 7] | 25 µg/mL (≈ 74.3 µM)

system: Helminthosporium sesamum IAM 5012; test: antimicrobial activity, MIC; assay type: cell-based; conditions: Helminthosporium, IAM5012, Helminthosporium sesamum IAM 5012; read-out: MIC

SMILES | MIC
CCCCCCOc1ccccc1C(=CCl)n1ccnc1 (single isomer, unassigned) [Compound 83] | 6.25 µg/mL (≈ 20.5 µM)
CCOc1ccccc1C(=CSCc1ccccc1)n1ccnc1 [Compound 7] | 0.39 µg/mL (≈ 1.16 µM)

system: Aspergillus niger ATCC 9642; test: antimicrobial activity, MIC; assay type: cell-based; conditions: Aspergillus niger, ATCC9642, Aspergillus niger ATCC 9642; read-out: MIC

SMILES | MIC
CCCCCCOc1ccccc1C(=CCl)n1ccnc1 (single isomer, unassigned) [Compound 83] | 12.5 µg/mL (≈ 41 µM)
CCOc1ccccc1C(=CSCc1ccccc1)n1ccnc1 [Compound 7] | 12.5 µg/mL (≈ 37.2 µM)

system: Penicillium chrysogenum ATCC 6010; test: antimicrobial activity, MIC; assay type: cell-based; conditions: Penicillium chrysogenum, ATCC6010, Penicillium chrysogenum ATCC 6010; read-out: MIC

SMILES | MIC
CCCCCCOc1ccccc1C(=CCl)n1ccnc1 (single isomer, unassigned) [Compound 83] | 25 µg/mL (≈ 82 µM)
CCOc1ccccc1C(=CSCc1ccccc1)n1ccnc1 [Compound 7] | 50 µg/mL (≈ 149 µM)

system: Debaryomyces kloeckeri IFO 0015; test: antimicrobial activity, MIC; assay type: cell-based; conditions: IFO0015, read-out: MIC

SMILES | MIC
CCCCCCOc1ccccc1C(=CCl)n1ccnc1 (single isomer, unassigned) [Compound 83] | 6.25 µg/mL (≈ 20.5 µM)
CCOc1ccccc1C(=CSCc1ccccc1)n1ccnc1 [Compound 7] | 25 µg/mL (≈ 74.3 µM)

system: Trichophyton rubrum NHL J; test: antimicrobial activity, MIC; assay type: cell-based; conditions: Trichophyton rubrum, Trichophyton rubrum NHL J; read-out: MIC

SMILES | MIC
CCCCCCOc1ccccc1C(=CCl)n1ccnc1 (single isomer, unassigned) [Compound 83] | < 0.2 µg/mL
CCOc1ccccc1C(=CSCc1ccccc1)n1ccnc1 [Compound 7] | < 0.2 µg/mL

system: Staphylococcus aureus FDA 209P; test: antimicrobial activity, MIC; assay type: cell-based; conditions: Staphylococcus aureus, FDA209P, read-out: MIC

SMILES | MIC
CCCCCCOc1ccccc1C(=CCl)n1ccnc1 (single isomer, unassigned) [Compound 83] | 12.5 µg/mL (≈ 41 µM)
CCOc1ccccc1C(=CSCc1ccccc1)n1ccnc1 [Compound 7] | 50 µg/mL (≈ 149 µM)

system: Saccharomyces ruxii 6507; test: antimicrobial activity, MIC; assay type: cell-based; conditions: Saccharomyces ruxii 6507; read-out: MIC

SMILES | MIC
CCCCCCOc1ccccc1C(=CCl)n1ccnc1 (single isomer, unassigned) [Compound 83] | < 0.2 µg/mL
CCOc1ccccc1C(=CSCc1ccccc1)n1ccnc1 [Compound 7] | 0.78 µg/mL (≈ 2.32 µM)

system: Staphylococcus aureus Smith; test: antimicrobial activity, MIC; assay type: cell-based; conditions: Staphylococcus aureus, read-out: MIC

SMILES | MIC
CCCCCCOc1ccccc1C(=CCl)n1ccnc1 (single isomer, unassigned) [Compound 83] | 12.5 µg/mL (≈ 41 µM)
CCOc1ccccc1C(=CSCc1ccccc1)n1ccnc1 [Compound 7] | 12.5 µg/mL (≈ 37.2 µM)

system: Microsporum audounii IFO 6074; test: antimicrobial activity, MIC; assay type: cell-based; conditions: Microsporum, IFO6074, Microsporum audounii IFO 6074; read-out: MIC

SMILES | MIC
CCCCCCOc1ccccc1C(=CCl)n1ccnc1 (single isomer, unassigned) [Compound 83] | < 0.2 µg/mL
CCOc1ccccc1C(=CSCc1ccccc1)n1ccnc1 [Compound 7] | < 0.2 µg/mL

system: Trichophyton tonsurans IFO 5928; test: antimicrobial activity, MIC; assay type: cell-based; conditions: Trichophyton tonsurans, IFO5928, Trichophyton tonsurans IFO 5928; read-out: MIC

SMILES | MIC
CCCCCCOc1ccccc1C(=CCl)n1ccnc1 (single isomer, unassigned) [Compound 83] | < 0.2 µg/mL
CCOc1ccccc1C(=CSCc1ccccc1)n1ccnc1 [Compound 7] | < 0.2 µg/mL

system: Candida albicans Yu-1200; test: antimicrobial activity, MIC; assay type: cell-based; conditions: YU1200, read-out: MIC

SMILES | MIC
CCCCCCOc1ccccc1C(=CCl)n1ccnc1 (single isomer, unassigned) [Compound 83] | 12.5 µg/mL (≈ 41 µM)
CCOc1ccccc1C(=CSCc1ccccc1)n1ccnc1 [Compound 7] | > 100 µg/mL

system: Gibberella fujikuroi IAM 8046; test: antimicrobial activity, MIC; assay type: cell-based; conditions: Fusarium fujikuroi, IAM8046, Gibberella fujikuroi IAM 8046; read-out: MIC

SMILES | MIC
CCCCCCOc1ccccc1C(=CCl)n1ccnc1 (single isomer, unassigned) [Compound 83] | 25 µg/mL (≈ 82 µM)
CCOc1ccccc1C(=CSCc1ccccc1)n1ccnc1 [Compound 7] | 6.25 µg/mL (≈ 18.6 µM)

system: Sarcina lutea ATCC 9341; test: antimicrobial activity, MIC; assay type: cell-based; conditions: Micrococcus luteus, ATCC9341, Sarcina lutea ATCC 9341; read-out: MIC

SMILES | MIC
CCCCCCOc1ccccc1C(=CCl)n1ccnc1 (single isomer, unassigned) [Compound 83] | 3.12 µg/mL (≈ 10.2 µM)
CCOc1ccccc1C(=CSCc1ccccc1)n1ccnc1 [Compound 7] | 12.5 µg/mL (≈ 37.2 µM)

system: Aspergillus oryzae IMF 4014; test: antimicrobial activity, MIC; assay type: cell-based; conditions: Aspergillus oryzae, IMF4014, Aspergillus oryzae IMF 4014; read-out: MIC

SMILES | MIC
CCCCCCOc1ccccc1C(=CCl)n1ccnc1 (single isomer, unassigned) [Compound 83] | 12.5 µg/mL (≈ 41 µM)
CCOc1ccccc1C(=CSCc1ccccc1)n1ccnc1 [Compound 7] | 6.25 µg/mL (≈ 18.6 µM)

system: Epidermophyton floccosum IFO 9045; test: antimicrobial activity, MIC; assay type: cell-based; conditions: Epidermophyton floccosum, IFO9045, Epidermophyton floccosum IFO 9045; read-out: MIC

SMILES | MIC
CCCCCCOc1ccccc1C(=CCl)n1ccnc1 (single isomer, unassigned) [Compound 83] | 6.25 µg/mL (≈ 20.5 µM)
CCOc1ccccc1C(=CSCc1ccccc1)n1ccnc1 [Compound 7] | 6.25 µg/mL (≈ 18.6 µM)

system: Fusarium moniliforme IAM 5062; test: antimicrobial activity, MIC; assay type: cell-based; conditions: Fusarium verticillioides, IAM5062, Fusarium moniliforme IAM 5062; read-out: MIC

SMILES | MIC
CCCCCCOc1ccccc1C(=CCl)n1ccnc1 (single isomer, unassigned) [Compound 83] | 25 µg/mL (≈ 82 µM)
CCOc1ccccc1C(=CSCc1ccccc1)n1ccnc1 [Compound 7] | 6.25 µg/mL (≈ 18.6 µM)

system: Bacillus subtilis ATCC 6633; test: antimicrobial activity, MIC; assay type: cell-based; conditions: Bacillus subtilis, ATCC6633, Bacillus subtilis ATCC 6633; read-out: MIC

SMILES | MIC
CCCCCCOc1ccccc1C(=CCl)n1ccnc1 (single isomer, unassigned) [Compound 83] | 6.25 µg/mL (≈ 20.5 µM)
CCOc1ccccc1C(=CSCc1ccccc1)n1ccnc1 [Compound 7] | 25 µg/mL (≈ 74.3 µM)

system: Saccharomyces cerevisiae ATCC 9763; test: antimicrobial activity, MIC; assay type: cell-based; conditions: Saccharomyces cerevisiae, ATCC9763, Saccharomyces cerevisiae ATCC 9763; read-out: MIC

SMILES | MIC
CCCCCCOc1ccccc1C(=CCl)n1ccnc1 (single isomer, unassigned) [Compound 83] | 25 µg/mL (≈ 82 µM)
CCOc1ccccc1C(=CSCc1ccccc1)n1ccnc1 [Compound 7] | < 0.2 µg/mL

system: Microsporum gypseum IFO 8231; test: antimicrobial activity, MIC; assay type: cell-based; conditions: Nannizzia gypsea, IFO8231, Microsporum gypseum IFO 8231; read-out: MIC

SMILES | MIC
CCCCCCOc1ccccc1C(=CCl)n1ccnc1 (single isomer, unassigned) [Compound 83] | 1.56 µg/mL (≈ 5.12 µM)
CCOc1ccccc1C(=CSCc1ccccc1)n1ccnc1 [Compound 7] | 1.56 µg/mL (≈ 4.64 µM)

system: Streptococcus faecalis IFO 12964; test: antimicrobial activity, MIC; assay type: cell-based; conditions: Enterococcus faecalis, IFO12964, Streptococcus faecalis IFO 12964; read-out: MIC

SMILES | MIC
CCCCCCOc1ccccc1C(=CCl)n1ccnc1 (single isomer, unassigned) [Compound 83] | 12.5 µg/mL (≈ 41 µM)
CCOc1ccccc1C(=CSCc1ccccc1)n1ccnc1 [Compound 7] | 50 µg/mL (≈ 149 µM)

system: Micrococcus lysodeixticus IFO 3333; test: antimicrobial activity, MIC; assay type: cell-based; conditions: Micrococcus, IFO3333, Micrococcus lysodeixticus IFO 3333; read-out: MIC

SMILES | MIC
CCCCCCOc1ccccc1C(=CCl)n1ccnc1 (single isomer, unassigned) [Compound 83] | 1.56 µg/mL (≈ 5.12 µM)
CCOc1ccccc1C(=CSCc1ccccc1)n1ccnc1 [Compound 7] | 6.25 µg/mL (≈ 18.6 µM)

system: Trichophyton mentagrophytes QM 248; test: antimicrobial activity, MIC; assay type: cell-based; conditions: Trichophyton mentagrophytes, QM248, Trichophyton mentagrophytes QM 248; read-out: MIC

SMILES | MIC
CCCCCCOc1ccccc1C(=CCl)n1ccnc1 (single isomer, unassigned) [Compound 83] | < 0.2 µg/mL
CCOc1ccccc1C(=CSCc1ccccc1)n1ccnc1 [Compound 7] | 3.12 µg/mL (≈ 9.27 µM)

system: Microsporum cookei IFO 8303; test: antimicrobial activity, MIC; assay type: cell-based; conditions: Paraphyton cookei, IFO8303, Microsporum cookei IFO 8303; read-out: MIC

SMILES | MIC
CCCCCCOc1ccccc1C(=CCl)n1ccnc1 (single isomer, unassigned) [Compound 83] | 6.25 µg/mL (≈ 20.5 µM)
CCOc1ccccc1C(=CSCc1ccccc1)n1ccnc1 [Compound 7] | 12.5 µg/mL (≈ 37.2 µM)
